Results: US6623933B1 (priority 1999, dated 2003)
Like-named read-outs stand apart in the source and are kept apart here.

Legend:
NR1111/NR2A = NR1111/NR2A (Rattus norvegicus, UniProt P35439+Q00959); design: agonist Emax: dose or concentration left out as unconfirmed; details: NR1111/NR2A
NR1000/NR2A = NR1000/NR2A (Rattus norvegicus, UniProt P35439+Q00959); design: agonist Emax: dose or concentration left out as unconfirmed; details: NR1000/NR2A
NR1/NR2D (NR1100) = NR1/NR2D (NR1100) (Rattus norvegicus, UniProt P35439+Q62645)
NR1100/NR2A = NR1100/NR2A (Rattus norvegicus, UniProt P35439+Q00959); design: agonist nHill / agonist Emax: dose or concentration left out as unconfirmed; details: NR1100/NR2A
NR1/NR2B (NR1100) = NR1/NR2B (NR1100) (Rattus norvegicus, UniProt P35439+Q00960)
Excerpt: (§5) Plasmids containing the NR1100 (NR1G) and NR2A cDNA inserts were kindly provided by Dr. Nakanishi (Kyoto University Faculty of Medicine, Kyoto, Japan). Plasmids containing the NR2B, NR2C and NR2D cDNA inserts were kindly provided by Dr. P. Seeburg (Heidelberg University, Heidelberg, Germany). Plasmids were linearized with appropriate restriction enzyme prior to in vitro transcription using the Message Machine kit (Ambion, Inc., Austin, Tex.).
(§6) Female, oocyte-positive Xenopus laevis frogs were purchased from Xenopus I (Dexter, Mich.). […] Oocytes were injected with 50 nL of RNA solutions using an electronic microinjector (Drummond Inc., Broomall, Pa.). […] The injected oocytes were used for experiments following 1-5 days of incubation in Barth's solution at 18-20° C.
(§7) The microelectrodes were fabricated from borosilicate glass capillaries with a programmed puller (Sutter Instrument Co., Calif.). Microelectrode resistance was 1-3 MΩ_when filled with 3 M KCl.
(§8) Except where otherwise stated, oocytes were clamped at a holding potential of −70 mV during data acquisition. The membrane current was filtered at 500 Hz and sampled at 100 Hz. Drugs were applied using a gravity-driven external perfusion system. The working volume of the recording chamber was 30 μl and the rate of the perfusion was 50 μl/sec. The drug application lasted 10 sec and was followed by 60 s wash. Data acquisition and external perfusion were controlled using custom-written software implemented in the SuperScope II development environment (GW Instruments, Mass.). All experiments were performed at room temperature of 22-24° C. Peak or steady-state current measurements were normalized and expressed as a fraction of the peak or steady-state control current measurements, which were performed before and after application of every single concentration of agonists or steroids.
(§9) Concentration-response data were analyzed by nonlinear regress ion using the logistic equation Response=Emax/(1+(EC50/c)^nH), where c is concentration, Emaxis the maximum response, nHis the Hill coefficient. The data are presented as mean±SEM. EC50values are averaged as logarithms (De Lean et al., Am. J. Physiol. 235: E97-E102 (1978))±the SEM of the log EC50. […] The pooled data were simultaneously fitted to the logistic equation, either with Emax and EC50 constrained to be identical in the presence and absence of PS, or allowing one or both to vary independently. […] This was regarded as indicating a significant treatment effect of PS, but the change in EC50and Emaxwas not considered significant. […] No attempt was made to test the generally small changes in nHfor statistical significance.

NR1/NR2A (NR1100) = NR1/NR2A (NR1100) (Rattus norvegicus, UniProt P35439+Q00959); details: +100 μM PS
NR1001/NR2A = NR1001/NR2A (Rattus norvegicus, UniProt P35439+Q00959); design: agonist Emax: dose or concentration left out as unconfirmed; details: NR1001/NR2A
NR1/NR2C (NR1100) = NR1/NR2C (NR1100) (Rattus norvegicus, UniProt P35439+Q00961); details: NR1/NR2C; +100 μM PS
Excerpt: as §5, §6, §7, §8, §9

NR1011/NR2A = NR1011/NR2A (Rattus norvegicus, UniProt P35439+Q00959); design: agonist Emax: dose or concentration left out as unconfirmed; details: NR1011/NR2A; presence of PS
NR1010/NR2A = NR1010/NR2A (Rattus norvegicus, UniProt P35439+Q00959); design: agonist nHill / agonist Emax: dose or concentration left out as unconfirmed; details: NR1010/NR2A
NR1101/NR2A = NR1101/NR2A (Rattus norvegicus, UniProt P35439+Q00959); design: agonist Emax: dose or concentration left out as unconfirmed; details: NR1101/NR2A
[1] = target: T1, NR1100+NR2A NMDA receptor (Rattus norvegicus, UniProt P35439+Q00959); experiment: NMDA-induced currents, Xenopus oocytes, Example 1; type: cell-based; details: NR1100 + NR2A; steroid 100 μM; 100 μM NMDA; −100 mV
T1 construct: expressed in transfected cells; host or cells: Xenopus oocytes co-injected with NR1100 and NR2A cRNA
Excerpt: (§1) Plasmids were obtained from the following individuals: Dr. Suzanne Zukin (Albert Einstein College of Medicine, Bronx, N.Y.), NR1100; Dr. Shigetada Nakanishi (Kyoto University Faculty of Medicine, Kyoto, Japan), NR2A; Dr. Stephen Heinemann (Salk Institute, San Diego, Calif.), GluR1 (flop), GluR3 (flop), and GluR6. Plasmids were linearized with BamH1 (NR1100), XhoI (NR2A, GluR1, GluR3) or XbaI (GluR6) prior to in vitro transcription with T3 (GluR1, GluR3, GluR6) or T7 (NR1100, NR2A) RNA polymerase using the Message Machine kit (Ambion, Austin, Tex.). […] RNA solutions (50-70 nl) were injected into oocytes for delivery of NR1100 (5 ng), NR1100:NR2A (1:10 ng), GluR1 (5 ng). GluR3 (5 ng), or GluR6 (20 ng). Oocytes were incubated in ND96 at 18-20° C. for 3-7 days prior to electrophysiological recording.
(§2) Steroid solutions were prepared as 70-100 mM frozen stocks in dimethyl sulfoxide (DMSO). The final DMSO concentration of all recording solutions was between 0.1% to 0.5% and was constant within an experiment.
(§3) Perfusion control and data acquisition were carried out using an automated oocyte electrophysiology workstation that was developed for the rapid collection of concentration-response data and real-time waveform analysis (Yaghoubi et al., Soc. Neurosci. Abstr. 20: 1109 (1995)). This system is implemented on a Macintosh IIci computer (Apple Computer, Cupertino, Calif.) equipped with MacA-DIOS II data acquisition and control hardware (GW Instruments, Somerville, Mass.). Drug application is controlled by the computer through a series of valves, using custom-written software based on the SuperScope II development environment, improving the efficiency and reproducibility of data collection. Experiments were carried out using an Axoclamp-2A voltage clamp amplifier (Axon Instruments, Foster City, Calif.) in two-electrode voltage clamp mode. Intracellular microelectrodes (1-3 MΩ) were filled with 3 M KCl. […] Membrane potential was clamped at −60 to −70 mV and stepped to −100 mV at the start of data acquisition unless otherwise stated. […] Current and voltage recordings were digitized at 100 Hz for analysis. GluR6 injected oocytes were treated for 10 min with 10 μg/ml concanavalin A to prevent fast desensitization.
(§4) Results are expressed as mean±S.E.M. Statistical comparisons were made using Student's t-test.

GluR6 kainate receptor = target: T2, GluR6 kainate receptor (Rattus norvegicus, UniProt P42260); experiment: Kainate-induced currents, Xenopus oocytes injected with GluR6 cRNA; type: cell-based; details: GluR6, steroid 100 μM; for Percentage change in kainate response: 10 μM kainate, −100 mV
T2 construct: expressed in transfected cells; host or cells: Xenopus oocytes injected with GluR6 cRNA (concanavalin A treated)
Excerpt: as §1, §2, §3, §4

GluR3 AMPA receptor = target: T3, GluR3 AMPA receptor (Rattus norvegicus, UniProt P19492); experiment: Kainate-induced currents, Xenopus oocytes injected with GluR3 cRNA; type: cell-based; details: GluR3, steroid 100 μM; for Percentage change in kainate response: 100 μM kainate, −100 mV
T3 construct: expressed in transfected cells; host or cells: Xenopus oocytes injected with GluR3 cRNA
Excerpt: as §1, §2, §3, §4

GluR1 AMPA receptor = target: T4, GluR1 AMPA receptor (Rattus norvegicus, UniProt P19490); experiment: Kainate-induced currents, Xenopus oocytes injected with GluR1 cRNA; type: cell-based; details: GluR1, steroid 100 μM; for Percentage change in kainate response: 100 μM kainate, −100 mV
T4 construct: expressed in transfected cells; host or cells: Xenopus oocytes injected with GluR1 cRNA
Excerpt: as §1, §2, §3, §4

[2] = test system: primary cultures of rat hippocampal neurons; experiment: NMDA-induced neuronal death, trypan blue exclusion; type: cell-based; details: DNQX; 100 μM SR-95531; not shown
Protocol: Principally neuronal cultures were prepared from hippocampal tissue of fetal Sprague-Dawley rats on day 18 of embryonic development, as previously described (Brewer et al., Brain Research 494: 65-74 (1989)). Briefly, hippocampal cells were dissociated by trituration in Ca^2+/Mg^2+-free Hank's basic salt solution (Gibco) supplemented with 4.2 mM bicarbonate, 1 mM sodium pyruvate, 20 mM HEPES, 3 mg/ml bovine serum albumin (BSA). Dissociated cells were then pelleted by centrifugation (500×g, 4 min). […] Cells were then plated onto poly-L-lysine-coated 24-well culture dishes (Nunclon) at a density of 15,000 cell/cm^2 and maintained in a humidified atmosphere containing 5% CO2/95% air at 37° C. After 48 h, nonneuronal cell division was inhibited by a 48 h exposure to 1 μM cytosine arabinoside. Cultures were subsequently maintained in serum-free DMEM plus defined components and were used for experiments 16 to 24 days after plating.
Steroids were dissolved in DMSO (0.5% final concentration), and all treatment media contained 0.5% DMSO. […] Following exposure, cultures were washed 3 times with medium from sister cultures (conditioned medium). After the final wash, steroid or vehicle was reintroduced. Drugs were added to cultures in 25 μl of conditioned medium to yield a final volume of 0.25 ml per well. Except where otherwise noted, final steroid concentration was 100 μM.
The ability of neurons to exclude trypan blue was used to quantitate cell viability (Dawson et al., Proc Natl Acad Sci USA 88: 6368-6371 (1991)). […] Cultures were then fixed with 4% paraformaldehyde in PBS for 30 min, at whichtime the fixative was replaced with PBS. The number of stained and unstained neurons were counted in 4 high-power fields per culture well, using an inverted phase contrast microscope under both bright field and phase contrast settings. Experiments were performed in triplicate, and all assessments were made with the experimenter blind to the treatment of each culture well. Percent cell death is expressed as follows: (number of trypan blue stained neurons)/(total number of neurons)×100%.
All data are expressed as mean±standard error of the mean. Statistical significance was evaluated using 95% confidence limits unless otherwise noted.

Sequence of NR1/NR2D (NR1100) (Q62645 28-1323, other chains not shown): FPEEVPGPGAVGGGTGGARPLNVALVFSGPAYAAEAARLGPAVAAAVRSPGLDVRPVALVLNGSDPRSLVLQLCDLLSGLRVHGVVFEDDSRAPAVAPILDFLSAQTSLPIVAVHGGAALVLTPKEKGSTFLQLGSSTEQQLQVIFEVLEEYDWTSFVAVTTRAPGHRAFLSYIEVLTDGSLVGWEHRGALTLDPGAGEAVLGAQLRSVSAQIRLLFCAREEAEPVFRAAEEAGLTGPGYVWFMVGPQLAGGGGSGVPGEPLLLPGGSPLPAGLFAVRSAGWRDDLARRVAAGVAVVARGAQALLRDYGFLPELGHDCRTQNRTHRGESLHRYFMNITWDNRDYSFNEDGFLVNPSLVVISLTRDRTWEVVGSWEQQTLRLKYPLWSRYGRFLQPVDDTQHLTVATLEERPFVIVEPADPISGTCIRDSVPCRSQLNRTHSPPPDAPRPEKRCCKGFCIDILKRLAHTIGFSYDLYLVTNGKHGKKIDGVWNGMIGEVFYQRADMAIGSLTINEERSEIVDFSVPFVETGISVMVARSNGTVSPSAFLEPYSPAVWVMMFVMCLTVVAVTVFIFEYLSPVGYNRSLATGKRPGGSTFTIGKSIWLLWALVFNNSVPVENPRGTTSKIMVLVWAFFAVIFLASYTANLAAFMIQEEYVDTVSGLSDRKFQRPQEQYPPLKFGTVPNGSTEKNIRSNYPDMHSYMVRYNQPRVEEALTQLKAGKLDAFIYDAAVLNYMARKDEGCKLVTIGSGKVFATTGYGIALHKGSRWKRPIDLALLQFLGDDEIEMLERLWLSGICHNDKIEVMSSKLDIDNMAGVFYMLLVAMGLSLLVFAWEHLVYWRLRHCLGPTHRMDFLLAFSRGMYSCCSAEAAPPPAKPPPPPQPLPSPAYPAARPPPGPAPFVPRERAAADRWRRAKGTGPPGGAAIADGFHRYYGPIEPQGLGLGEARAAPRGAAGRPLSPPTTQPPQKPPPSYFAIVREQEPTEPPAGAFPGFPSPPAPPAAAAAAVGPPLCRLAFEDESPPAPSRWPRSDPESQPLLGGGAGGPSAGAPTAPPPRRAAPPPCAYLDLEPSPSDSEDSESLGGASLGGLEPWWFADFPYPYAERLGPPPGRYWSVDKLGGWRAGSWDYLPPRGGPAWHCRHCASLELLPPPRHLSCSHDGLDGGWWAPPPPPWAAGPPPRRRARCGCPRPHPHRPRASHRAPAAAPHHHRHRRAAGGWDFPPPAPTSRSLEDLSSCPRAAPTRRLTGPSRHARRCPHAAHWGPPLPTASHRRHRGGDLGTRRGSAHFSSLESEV
T3 sequence (P19492 23-888): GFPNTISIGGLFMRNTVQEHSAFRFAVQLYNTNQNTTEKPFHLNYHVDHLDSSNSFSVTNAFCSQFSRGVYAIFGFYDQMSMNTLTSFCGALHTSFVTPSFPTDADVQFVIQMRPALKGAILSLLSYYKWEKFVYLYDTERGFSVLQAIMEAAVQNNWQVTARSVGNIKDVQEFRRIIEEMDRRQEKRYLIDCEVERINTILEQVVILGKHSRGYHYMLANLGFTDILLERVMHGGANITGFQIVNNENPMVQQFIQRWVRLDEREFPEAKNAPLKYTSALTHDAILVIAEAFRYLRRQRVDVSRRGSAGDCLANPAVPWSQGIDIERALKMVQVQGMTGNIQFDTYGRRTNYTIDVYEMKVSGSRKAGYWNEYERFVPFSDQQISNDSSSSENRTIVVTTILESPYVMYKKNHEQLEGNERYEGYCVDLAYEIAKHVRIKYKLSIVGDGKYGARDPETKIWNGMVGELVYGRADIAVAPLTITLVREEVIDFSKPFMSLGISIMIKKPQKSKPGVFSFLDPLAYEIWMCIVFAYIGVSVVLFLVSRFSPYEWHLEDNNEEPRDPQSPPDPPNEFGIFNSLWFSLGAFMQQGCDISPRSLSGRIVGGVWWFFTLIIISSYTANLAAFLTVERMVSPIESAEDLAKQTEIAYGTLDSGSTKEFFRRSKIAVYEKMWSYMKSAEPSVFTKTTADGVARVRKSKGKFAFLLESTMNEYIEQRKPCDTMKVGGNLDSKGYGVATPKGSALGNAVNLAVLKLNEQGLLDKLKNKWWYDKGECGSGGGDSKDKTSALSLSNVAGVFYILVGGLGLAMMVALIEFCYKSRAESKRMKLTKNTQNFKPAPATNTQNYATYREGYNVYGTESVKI
Sequence of NR1010/NR2A (Q00959 23-1464, other chains not shown): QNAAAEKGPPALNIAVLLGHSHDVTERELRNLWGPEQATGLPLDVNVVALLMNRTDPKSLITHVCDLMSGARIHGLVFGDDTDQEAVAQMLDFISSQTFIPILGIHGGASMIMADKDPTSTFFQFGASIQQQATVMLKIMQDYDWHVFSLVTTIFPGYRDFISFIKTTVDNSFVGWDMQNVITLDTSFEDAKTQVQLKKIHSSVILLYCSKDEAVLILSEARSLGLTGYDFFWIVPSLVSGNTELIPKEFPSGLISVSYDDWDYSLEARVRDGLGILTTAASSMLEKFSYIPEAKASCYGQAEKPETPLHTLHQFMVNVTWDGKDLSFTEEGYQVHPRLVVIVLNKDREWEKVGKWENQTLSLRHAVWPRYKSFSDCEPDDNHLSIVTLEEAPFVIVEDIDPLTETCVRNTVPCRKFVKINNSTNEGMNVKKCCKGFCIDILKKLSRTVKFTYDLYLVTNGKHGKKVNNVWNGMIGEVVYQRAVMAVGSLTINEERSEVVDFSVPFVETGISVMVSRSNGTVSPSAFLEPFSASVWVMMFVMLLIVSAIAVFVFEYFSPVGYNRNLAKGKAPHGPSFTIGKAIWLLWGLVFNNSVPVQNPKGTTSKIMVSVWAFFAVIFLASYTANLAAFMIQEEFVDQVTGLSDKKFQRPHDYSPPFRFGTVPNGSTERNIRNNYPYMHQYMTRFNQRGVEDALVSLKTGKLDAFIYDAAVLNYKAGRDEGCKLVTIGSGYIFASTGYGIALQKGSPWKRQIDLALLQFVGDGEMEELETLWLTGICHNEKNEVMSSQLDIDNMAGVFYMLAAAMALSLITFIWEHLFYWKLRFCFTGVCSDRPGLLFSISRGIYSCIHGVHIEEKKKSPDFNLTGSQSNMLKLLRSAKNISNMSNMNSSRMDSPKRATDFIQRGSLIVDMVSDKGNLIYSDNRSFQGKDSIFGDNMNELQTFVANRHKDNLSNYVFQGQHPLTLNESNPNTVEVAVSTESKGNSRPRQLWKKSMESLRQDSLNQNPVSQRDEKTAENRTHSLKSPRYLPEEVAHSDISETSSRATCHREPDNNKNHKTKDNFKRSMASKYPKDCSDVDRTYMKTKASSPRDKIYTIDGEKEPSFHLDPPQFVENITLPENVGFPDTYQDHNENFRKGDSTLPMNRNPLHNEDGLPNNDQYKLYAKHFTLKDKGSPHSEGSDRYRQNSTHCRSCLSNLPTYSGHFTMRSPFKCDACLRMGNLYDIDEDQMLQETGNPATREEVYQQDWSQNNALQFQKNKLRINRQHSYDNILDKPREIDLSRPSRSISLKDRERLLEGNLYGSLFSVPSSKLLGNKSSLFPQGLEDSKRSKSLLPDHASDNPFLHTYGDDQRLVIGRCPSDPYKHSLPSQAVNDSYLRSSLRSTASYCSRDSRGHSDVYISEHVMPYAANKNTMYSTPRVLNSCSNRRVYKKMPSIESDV
Sequence of NR1000/NR2A (Q00959 23-1464, other chains not shown): as above

NCC(=O)O [glycine]
agonist Emax (NR1111/NR2A; absence of PS): 1.93 ± 0.07 | agonist Emax (NR1111/NR2A; presence of PS): 2.68 ± 0.16 | agonist Emax (NR1000/NR2A; absence of PS): 1.48 ± 0.04 | agonist nHill (NR1000/NR2A; absence of PS): 0.90 ± 0.01 | agonist Emax (NR1000/NR2A; presence of PS): 2.88 ± 0.27 | agonist Emax (NR1/NR2D (NR1100); +100 μM PS): 0.74 | agonist nH (NR1/NR2D (NR1100); +100 μM PS): 0.95 ± 0.01 | agonist Emax (NR1/NR2D (NR1100); no PS): 1.22 ± 0.05 | agonist Emax (NR1100/NR2A; absence of PS): 1.52 ± 0.07 | agonist Emax (NR1100/NR2A; presence): 2.34 ± 0.09 | agonist nHill (NR1100/NR2A; presence): 1.03 ± 0.05 | agonist Emax (NR1/NR2B (NR1100); +100 μM PS): 1.63 ± 0.04 | agonist nH (NR1/NR2B (NR1100); +100 μM PS): 1.15 ± 0.03 | agonist nH (NR1/NR2B (NR1100); no PS): 1.09 ± 0.04 | agonist Emax (NR1/NR2A (NR1100)): 2.34 | agonist nH (NR1/NR2A (NR1100)): 1.03 ± 0.05 | agonist Emax (NR1001/NR2A; absence of PS): 1.89 ± 0.20 | agonist Emax (NR1001/NR2A; presence of PS): 2.77 ± 0.40 | agonist Emax (NR1/NR2C (NR1100)): 0.87 | agonist nH (NR1/NR2C (NR1100)): 1.11 ± 0.12 | agonist Emax (NR1011/NR2A): 2.24 ± 0.29 | agonist Emax (NR1010/NR2A; absence of PS): 1.51 ± 0.07 | agonist Emax (NR1010/NR2A; presence of PS): 1.92 ± 0.19 | agonist nHill (NR1010/NR2A; presence of PS): 1.38 ± 0.10 | agonist Emax (NR1101/NR2A; absence of PS): 1.63 ± 0.04 | agonist Emax (NR1101/NR2A; presence of PS): 2.46 ± 0.23

Dehydroepiandrosterone sulfate
Percentage change in NMDA response [1]: +8 ± 13(3) % | Percentage change in kainate response (GluR6 kainate receptor): −17 ± 5(3) % | Percentage change in kainate response (GluR3 AMPA receptor): −7 ± 1(4) % | Percentage change in kainate response (GluR1 AMPA receptor): −23 ± 3(3) %

Br.COc1ccc(-c2ccc(=N)n(CCCC(=O)O)n2)cc1 [SR-95531]
effect on NMDA-induced neuronal death [2]: no effect

C[C@]12CC[C@@H]3c4ccc(OS(=O)(=O)O)cc4CC[C@H]3[C@@H]1CC[C@@H]2O [17β-Estradiol-3-sulfate]
Percentage change in NMDA response [1]: +12 ± 3(4) % | inhibition of the response to kainate (GluR6 kainate receptor): 12% | Percentage change in kainate response (GluR6 kainate receptor): −13 ± 4(4) % | inhibition of the response to kainate (GluR3 AMPA receptor): no effect | Percentage change in kainate response (GluR3 AMPA receptor): −8 ± 4(3) % | inhibition of the response to kainate (GluR1 AMPA receptor): no effect | Percentage change in kainate response (GluR1 AMPA receptor): −2 ± 2(3) %
